Activity calls are given as the source filed them. No cut-off for these calls is given here.
Tests used:
Echinochloa crus-galli [1] = assay: Herbicidal activity against Echinochloa crus-galli (barnyard grass) assessed as inhibition of root length after 5 days relative to control; format: functional, organism-based; settings: 120 h
Echinochloa crus-galli [2] = assay: Herbicidal activity against Echinochloa crus-galli (barnyard grass) assessed as inhibition of seed germination at 0.05 uM to 1 mM after 5 days relative to control; format: functional, organism-based
Triticum aestivum [3] = assay: Phytotoxicity against Triticum aestivum (wheat) assessed as inhibition of seed germination at 10 uM to 1 mM after 5 days relative to control; format: organism-based; settings: in vivo, 120 h
Avena fatua [4] = assay: Herbicidal activity against Avena fatua assessed as inhibition of seed germination at 0.05 uM to 1 mM after 5 days relative to control; format: functional, organism-based
Triticum aestivum [5] = assay: Phytotoxicity against Triticum aestivum (wheat) assessed as inhibition of root elongation after 5 days relative to control; format: organism-based; settings: 120 h
Oryza sativa [6] = assay: Phytotoxicity against Oryza sativa (rice) assessed as inhibition of root elongation after 7 days relative to control; format: organism-based; settings: 168 h
Avena fatua [7] = assay: Herbicidal activity against Avena fatua assessed as inhibition of root length after 5 days relative to control; format: functional, organism-based; settings: 120 h
[8] = Selectivity idex, ratio of IC50 for root elongation in Triticum aestivum to IC50 for root elongation in Avena fatua
Oryza sativa [9] = assay: Phytotoxicity against Oryza sativa (rice) assessed as inhibition of seed germination at 10 uM to 1 mM after 7 days relative to control; format: organism-based; settings: in vivo, 168 h
Avena fatua [10] = assay: Herbicidal activity against Avena fatua assessed as inhibition of shoot length at 0.05 uM to 1 mM after 5 days relative to control; format: functional, organism-based
[11] = Selectivity idex, ratio of IC50 for root elongation in Oryza sativa to IC50 for root elongation in Echinochloa crus-galli
Echinochloa crus-galli [12] = assay: Herbicidal activity against Echinochloa crus-galli (barnyard grass) assessed as inhibition of shoot length at 0.05 uM to 1 mM after 5 days relative to control; format: functional, organism-based
Avena fatua [13] = assay: Herbicidal activity against Avena fatua assessed as inhibition of root elongation at 114 uM after 5 days relative to control; format: functional; settings: 120 h
[14] = Phytotoxicity against Triticum aestivum (wheat) assessed as inhibition of root elongation at 114 uM after 5 days relative to control; format: organism-based; settings: in vivo
Echinochloa crus-galli [15] = assay: Ratio of Contanil IC50 to compound IC50 for root elongation in Echinochloa crus-galli (barnyard grass); format: functional
[16] = Phytotoxicity against Triticum aestivum (wheat) assessed as inhibition of root elongation at 6 uM after 5 days relative to control; format: organism-based; settings: in vivo
Avena fatua [17] = assay: Herbicidal activity against Avena fatua assessed as inhibition of root elongation at 6 uM after 5 days relative to control; format: functional; settings: 120 h
Echinochloa crus-galli [18] = assay: Herbicidal activity against Echinochloa crus-galli (barnyard grass) assessed as inhibition of root elongation at 52 uM after 5 days relative to control; format: functional; settings: 120 h
[19] = Phytotoxicity against Oryza sativa (rice) assessed as inhibition of root elongation at 52 uM after 7 days relative to control; format: organism-based; settings: in vivo

| Compound | IC50 (Echinochloa crus-galli [1]) | inhibition (Echinochloa crus-galli [2]) | Activity (Triticum aestivum [3]) | inhibition (Avena fatua [4]) | IC50 (Triticum aestivum [5]) | IC50 (Oryza sativa [6]) | IC50 (Avena fatua [7]) | Ratio IC50 [8] | Activity (Oryza sativa [9]) | inhibition (Avena fatua [10]) | Ratio IC50 [11] | inhibition (Echinochloa crus-galli [12]) | inhibition at 114 µM (Avena fatua [13]) | inhibition at 120 h, 114 µM [14] | Ratio IC50 (Echinochloa crus-galli [15]) | inhibition at 120 h, 6 µM [16] | inhibition at 6 µM (Avena fatua [17]) | inhibition at 52 µM (Echinochloa crus-galli [18]) | inhibition at 168 h, 52 µM [19] |
| --- | --- | --- | --- | --- | --- | --- | --- | --- | --- | --- | --- | --- | --- | --- | --- | --- | --- | --- | --- |
| O=C1C(c2ccccc2)Oc2ccc(F)cc2N1O [6-F-2-Ph-D-DIBOA] | 211 µM | Active | Non-toxic | Active | 641 µM | 1240 µM | 176 µM | 3.65 | Non-toxic | Active | 5.86 | Active | – | – | – | – | – | – | – |
| O=C1C(c2ccccc2)Oc2ccc(Cl)cc2N1O [6-Cl-2-Ph-D-DIBOA] | 94 µM | Active | Non-toxic | Active | 690 µM | 992 µM | 197 µM | 3.51 | Non-toxic | Active | 10.5 | Active | – | – | – | – | – | – | – |
| CCCC1Oc2ccc(F)cc2N(O)C1=O (stereo unspecified) | 183 µM | Active | Non-toxic | Active | 766 µM | 337 µM | 160 µM | 4.78 | Non-toxic | Active | 1.85 | Active | – | – | – | – | – | – | – |
| O=C1C(c2ccccc2)Oc2c(Cl)cccc2N1O [8-Cl-2-Ph-D-DIBOA] | 109 µM | Active | Non-toxic | Active | 263 µM | 384 µM | 150 µM | 1.75 | Non-toxic | Active | 3.51 | Active | – | – | – | – | – | – | – |
| CCC1Oc2ccc(Cl)cc2N(O)C1=O [6-Cl-2-Et-D-DIBOA] | 840 µM | Active | Non-toxic | Active | 130 µM | 56 µM | 466 µM | 0.28 | Non-toxic | Active | 0.07 | Active | – | – | – | – | – | – | – |
| CCC1Oc2ccc(F)cc2N(O)C1=O [6-F-2-Et-D-DIBOA] | 25 µM | Active | Non-toxic | Active | 63.1 µM | 15 µM | 24.4 µM | 2.59 | Non-toxic | Active | 0.58 | Active | – | – | – | – | – | – | – |
| CCCC1Oc2ccc(Cl)cc2N(O)C1=O [6-Cl-2-Pr-D-DIBOA] | 131 µM | Active | Non-toxic | Active | 470 µM | 156 µM | 123 µM | 3.82 | Non-toxic | Active | 1.19 | Active | – | – | – | – | – | – | – |
| CCCCC(=O)ON1C(=O)COc2c(Cl)cccc21 | 64 µM | Active | Non-toxic | Active | 1640 µM | 712 µM | 114 µM | 14.4 | Non-toxic | Active | 11.1 | Active | 70% | 18% | – | – | – | – | – |
| CCC(=O)ON1C(=O)COc2ccc(Cl)cc21 | 14 µM | Active | Non-toxic | Active | 46.6 µM | 3 µM | 19.3 µM | 2.42 | Non-toxic | Active | 0.2 | Active | – | – | – | – | – | – | – |
| CCC(=O)ON1C(=O)COc2ccc(F)cc21 [6F-4Pr-D-DIBOA] | 9 µM | Active | Non-toxic | Active | 81.9 µM | 3 µM | 6.22 µM | 13.2 | Non-toxic | Active | 0.36 | Active | – | – | 12 | 25% | 70% | – | – |
| CCC1Oc2c(Cl)cccc2N(O)C1=O [8-Cl-2-Et-D-DIBOA] | 145 µM | Active | Non-toxic | Active | 345 µM | 305 µM | 154 µM | 2.25 | Non-toxic | Active | 2.11 | Active | – | – | – | – | – | – | – |
| CCC(=O)ON1C(=O)COc2c(Cl)cccc21 [8-Cl-4-Pr-D-DIBOA] | 52 µM | Active | Non-toxic | Active | 1300 µM | 859 µM | 321 µM | 4.06 | Non-toxic | Active | 16.6 | Active | – | – | – | – | – | 70% | 8% |
| CCCC1Oc2c(Cl)cccc2N(O)C1=O [8-Cl-2-Pr-D-DIBOA] | 83 µM | Active | Non-toxic | Active | 393 µM | 614 µM | 73.2 µM | 5.37 | Non-toxic | Active | 7.44 | Active | – | – | – | – | – | – | – |
| CCCCC(=O)ON1C(=O)COc2ccc(Cl)cc21 [6-Cl-4-Val-D-DIBOA] | 14 µM | Active | Non-toxic | Active | 26.6 µM | 2 µM | 3.54 µM | 7.52 | Non-toxic | Active | 0.16 | Active | – | – | – | – | – | – | – |
| CCCCC(=O)ON1C(=O)COc2ccc(F)cc21 [6-F-4-Val-D-DIBOA] | 8 µM | Active | Non-toxic | Active | 58.2 µM | 6 µM | 6.53 µM | 8.92 | Non-toxic | Active | 0.78 | Active | – | – | 12 | – | – | – | – |
| CCC(=O)Nc1ccc(Cl)c(Cl)c1 [PROPANIL] | – | – | Non-toxic | – | – | – | – | – | Non-toxic | – | 1.87 | – | – | – | – | – | – | – | – |

Source: ChEMBL document CHEMBL3046390, “Multifunctionalised benzoxazinones in the systems Oryza sativa-Echinochloa crus-galli and Triticum aestivum-Avena fatua as natural-product-based herbicide leads” (Pest Manag Sci, 2010)
